Test results taken from US20260053811A1, “METHODS OF TREATING HYPERTENSION IN OBESE SUBJECTS” (Mineralys Therapeutics, Inc., priority 2022, published 2026).

Test system: hypertensive subjects
Assay: 24-hour ambulatory blood pressure monitoring (ABPM), incl. nighttime dip
Type: in vivo, human
Experimental: Ambulatory blood pressure monitoring was accomplished with an ambulatory blood pressure monitoring device that consists of a blood pressure cuff worn on a subject's arm attached to a small recording device that is typically attached to the subject's belt or waistband.
The ABPM device is worn for 24 hours. Throughout that period, the device records the subject's blood pressure at regular intervals, during the subject's routine daily activities and while they are sleeping. The ABPM thus provides a complete record of the subject's blood pressure over a 24-hour period.
24-hour ABPM was measured in the clinic at baseline and Study Week 7. If, for any reason, the ABPM procedure was deemed a failure at the end of Study Week 7, it may have been repeated at Study Week 8 and therefore no imputation was employed regardless of use of rescue medications. Additionally, ABPM was also collected at the end of Study Week 4 in Part 2. If a repeat test was performed, it supersedes the original test results for that visit.
Specific derived variables based on ABPM measurements include mean 24-hour, mean Daytime, and mean Nighttime of SBP, DBP, and heart rate.
Change from baseline to Week 7 in 24-hour mean SBP (and DBP) based on ABPM will be analyzed using an ANCOVA with a term for treatment group and a baseline mean 24-hour value as a covariate.
The nighttime dip is defined as
100%×(mean daytime SBP−mean nighttime SBP)/mean daytime SBP
It is expressed as a percentage and is summarized by treatment group and visit using descriptive statistics. In addition, the number and percentage of subjects with nighttime dip in each of the dipper categories (Bloomfield & Park, 2015) is presented by treatment group and visit. The categories are: • (a) <10% • (b) 10-20% inclusive • (c) >20%
Secondary endpoints of this study were: • (a) Change in 24-hour ambulatory blood pressure monitoring (ABPM) parameters (systolic and diastolic) from baseline to the end of Study Week 7. • (b) Change in office-measured SBP from baseline to the end of Study Weeks 1, 2, 3, 4, 5, 6, and 7. • (c) Change in office-measured diastolic blood pressure (DBP) from baseline to the end of Study Weeks 1, 2, 3, 4, 5, 6, 7, and 8. • (d) Proportion of subjects who achieve office-measured BP of ≤130/80 mm Hg by the end of Study Week 8.

[1] = 50 mg QD, End of Treatment, Part 1, FAS post-hoc
[2] = 100 mg QD Part 2, End of Treatment, FAS post-hoc
[3] = 100 mg QD, End of Treatment, Part 1, FAS post-hoc

Compound: CC(=O)N[C@H]1CC[C@H](NC(=O)CN2CCN(c3nncc(-c4ccc(C)cc4)n3)CC2)CC1 [Compound A HBr]
- LSM Δ with Placebo, 24-hr Mean MAP (ABPM, ANCOVA) [1]: −3.48 mmHg
- LSM Δ with Placebo, 24-hr SBP (ABPM, ANCOVA) [1]: −3.85 mmHg
- LSM Δ with Placebo, Daytime Mean DBP (ABPM, ANCOVA) [1]: −4.18 mmHg
- LSM Δ with Placebo, Daytime Mean SBP (ABPM, ANCOVA) [1]: −6.85 mmHg
- LSM Δ with Placebo, Mean Central DBP (ABPM, ANCOVA) [1]: −2.58 mmHg
- LSM Δ with Placebo, Mean Central Mean BP (ABPM, ANCOVA) [1]: −4.11 mmHg
- LSM Δ with Placebo, Mean Central SBP (ABPM, ANCOVA) [1]: −5.46 mmHg
- LSM Δ with Placebo, Nighttime Mean DBP (ABPM, ANCOVA) [1]: 0.15 mmHg
- LSM Δ with Placebo, Nighttime Mean SBP (ABPM, ANCOVA) [1]: 2.37 mmHg
- 24-hr Mean DBP (ABPM), Mean (SD) (50 mg QD, EoT, Part 1, FAS): 77.75 (9.33) mmHg
- 24-hr Mean MAP (ABPM), Mean (SD) (50 mg QD, EoT, Part 1, FAS): 104.55 (11.74) mmHg
- 24-hr Mean SBP (ABPM), Mean (SD) (50 mg QD, EoT, Part 1, FAS): 131.36 (15.58) mmHg
- Daytime Mean DBP (ABPM), Mean (SD) (50 mg QD, EoT, Part 1, FAS): 79.50 (9.08) mmHg
- Daytime Mean SBP (ABPM), Mean (SD) (50 mg QD, EoT, Part 1, FAS): 132.32 (14.36) mmHg
- Nighttime Mean DBP (ABPM), Mean (SD) (50 mg QD, EoT, Part 1, FAS): 74.25 (13.08) mmHg
- Nighttime Mean SBP (ABPM), Mean (SD) (50 mg QD, EoT, Part 1, FAS): 129.54 (21.68) mmHg
- Subjects with nighttime dip 10-20% in 24-hour systolic ABPM (50 mg QD, EoT, Part 1, FAS): 6 (21.4) n (%)
- Subjects with nighttime dip <10% in 24-hour systolic ABPM (50 mg QD, EoT, Part 1, FAS): 22 (78.6) n (%)
- Subjects with nighttime dip >20% in 24-hour systolic ABPM (50 mg QD, EoT, Part 1, FAS): 0 n (%)
- 24-hr Mean DBP (ABPM) CFB to EoT, Mean (SD) (50 mg QD, Part 1, FAS): −3.00 (8.52) mmHg
- 24-hr Mean MAP (ABPM) CFB to EoT, Mean (SD) (50 mg QD, Part 1, FAS): −2.39 (11.80) mmHg
- 24-hr Mean SBP (ABPM) CFB to EoT, Mean (SD) (50 mg QD, Part 1, FAS): −1.79 (15.82) mmHg
- Daytime Mean DBP (ABPM) CFB to EoT, Mean (SD) (50 mg QD, Part 1, FAS): −4.11 (6.81) mmHg
- Daytime Mean SBP (ABPM) CFB to EoT, Mean (SD) (50 mg QD, Part 1, FAS): −4.54 (13.59) mmHg
- Nighttime Mean DBP (ABPM) CFB to EoT, Mean (SD) (50 mg QD, Part 1, FAS): 0.00 (12.34) mmHg
- Nighttime Mean SBP (ABPM) CFB to EoT, Mean (SD) (50 mg QD, Part 1, FAS): 2.44 (22.25) mmHg
- LSM Δ with 100 mg QD Part 1, 24-hr Mean AP (ABPM, ANCOVA) [2]: 3.33 mmHg
- LSM Δ with 100 mg QD Part 1, 24-hr Mean DBP (ABPM, ANCOVA) [2]: 4.26 mmHg
- LSM Δ with 100 mg QD Part 1, 24-hr Mean SBP (ABPM, ANCOVA) [2]: 4.13 mmHg
- LSM Δ with 100 mg QD Part 1, Daytime Mean DBP (ABPM, ANCOVA) [2]: 3.92 mmHg
- LSM Δ with 100 mg QD Part 1, Daytime Mean SBP (ABPM, ANCOVA) [2]: 1.64 mmHg
- LSM Δ with 100 mg QD Part 1, Mean Central DBP (ABPM, ANCOVA) [2]: 4.53 mmHg
- LSM Δ with 100 mg QD Part 1, Mean Central Mean BP (ABPM, ANCOVA) [2]: 3.98 mmHg
- LSM Δ with 100 mg QD Part 1, Mean Central SBP (ABPM, ANCOVA) [2]: 4.68 mmHg
- LSM Δ with 100 mg QD Part 1, Nighttime Mean DBP (ABPM, ANCOVA) [2]: 5.04 mmHg
- LSM Δ with 100 mg QD Part 1, Nighttime Mean SBP (ABPM, ANCOVA) [2]: 8.91 mmHg
- LSM Δ with Placebo, 24-hr DBP (ABPM, ANCOVA) [3]: −5.23 mmHg
- LSM Δ with Placebo, 24-hr Mean MAP (ABPM, ANCOVA) [3]: −5.45 mmHg
- LSM Δ with Placebo, 24-hr SBP (ABPM, ANCOVA) [3]: −5.33 mmHg
- LSM Δ with Placebo, Daytime Mean DBP (ABPM, ANCOVA) [3]: −4.98 mmHg
- LSM Δ with Placebo, Daytime Mean SBP (ABPM, ANCOVA) [3]: −4.12 mmHg
- LSM Δ with Placebo, Mean Central DBP (ABPM, ANCOVA) [3]: −7.01 mmHg
- LSM Δ with Placebo, Mean Central Mean BP (ABPM, ANCOVA) [3]: −7.77 mmHg
- LSM Δ with Placebo, Mean Central SBP (ABPM, ANCOVA) [3]: −7.79 mmHg
- LSM Δ with Placebo, Nighttime Mean DBP (ABPM, ANCOVA) [3]: −5.68 mmHg
- LSM Δ with Placebo, Nighttime Mean SBP (ABPM, ANCOVA) [3]: −7.36 mmHg
- 24-hr Mean DBP (ABPM), Mean (SD) (100 mg QD, EoT, Part 1, FAS): 75.92 (8.42) mmHg
- 24-hr Mean MAP (ABPM), Mean (SD) (100 mg QD, EoT, Part 1, FAS): 105.48 (8.26) mmHg
- 24-hr Mean SBP (ABPM), Mean (SD) (100 mg QD, EoT, Part 1, FAS): 135.04 (11.25) mmHg
- Daytime Mean DBP (ABPM), Mean (SD) (100 mg QD, EoT, Part 1, FAS): 78.79 (9.44) mmHg
- Daytime Mean SBP (ABPM), Mean (SD) (100 mg QD, EoT, Part 1, FAS): 139.42 (11.65) mmHg
- Nighttime Mean DBP (ABPM), Mean (SD) (100 mg QD, EoT, Part 1, FAS): 69.00 (9.04) mmHg
- Nighttime Mean SBP (ABPM), Mean (SD) (100 mg QD, EoT, Part 1, FAS): 124.50 (14.93) mmHg
- Subjects with nighttime dip 10-20% in 24-hour systolic ABPM (100 mg QD, EoT, Part 1, FAS): 11 (45.8) n (%)
- Subjects with nighttime dip <10% in 24-hour systolic ABPM (100 mg QD, EoT, Part 1, FAS): 11 (45.8) n (%)
- Subjects with nighttime dip >20% in 24-hour systolic ABPM (100 mg QD, EoT, Part 1, FAS): 2 (8.3) n (%)
- 24-hr Mean DBP (ABPM), Mean (100 mg QD, EoT, Part 2, FAS): 77.07 mmHg
- 24-hr Mean MAP (ABPM), Mean (100 mg QD, EoT, Part 2, FAS): 104.83 mmHg
- 24-hr Mean SBP (ABPM), Mean (100 mg QD, EoT, Part 2, FAS): 132.59 mmHg
- Daytime Mean DBP (ABPM), Mean (100 mg QD, EoT, Part 2, FAS): 79.41 mmHg
- Daytime Mean SBP (ABPM), Mean (100 mg QD, EoT, Part 2, FAS): 135.22 mmHg
- Nighttime Mean DBP (ABPM), Mean (100 mg QD, EoT, Part 2, FAS): 71.85 mmHg
- Nighttime Mean SBP (ABPM), Mean (100 mg QD, EoT, Part 2, FAS): 126.04 mmHg
- 24-hr Mean DBP (ABPM) CFB to EoT, Mean (SD) (100 mg QD, Part 1, FAS): −5.92 (8.44) mmHg
- 24-hr Mean MAP (ABPM) CFB to EoT, Mean (SD) (100 mg QD, Part 1, FAS): −7.40 (10.04) mmHg
- 24-hr Mean SBP (ABPM) CFB to EoT, Mean (SD) (100 mg QD, Part 1, FAS): −8.88 (11.90) mmHg
- Daytime Mean DBP (ABPM) CFB to EoT, Mean (SD) (100 mg QD, Part 1, FAS): −4.96 (8.74) mmHg
- Daytime Mean SBP (ABPM) CFB to EoT, Mean (SD) (100 mg QD, Part 1, FAS): −7.08 (12.60) mmHg
- Nighttime Mean DBP (ABPM) CFB to EoT, Mean (SD) (100 mg QD, Part 1, FAS): −6.57 (9.97) mmHg
- Nighttime Mean SBP (ABPM) CFB to EoT, Mean (SD) (100 mg QD, Part 1, FAS): −11.48 (13.87) mmHg
- 24-hr Mean DBP (ABPM) CFB to EoT, Mean (100 mg QD, Part 2, FAS): 1.33 mmHg
- 24-hr Mean MAP (ABPM) CFB to EoT, Mean (100 mg QD, Part 2, FAS): 1.81 mmHg
- 24-hr Mean SBP (ABPM) CFB to EoT, Mean (100 mg QD, Part 2, FAS): 2.30 mmHg
- Daytime Mean DBP (ABPM) CFB to EoT, Mean (100 mg QD, Part 2, FAS): 1.67 mmHg
- Daytime Mean SBP (ABPM) CFB to EoT, Mean (100 mg QD, Part 2, FAS): 2.41 mmHg
- Nighttime Mean DBP (ABPM) CFB to EoT, Mean (100 mg QD, Part 2, FAS): 1.04 mmHg
- Nighttime Mean SBP (ABPM) CFB to EoT, Mean (100 mg QD, Part 2, FAS): 1.52 mmHg
- Change in BP, ABPM (night) BPsys, Mean (sem) (100 mg QD, Week 8, FAS): −11.5 (2.5) mmHg
- Proportion of Subjects with Nighttime Dip in 24-hour Systolic Ambulatory Blood Pressure 10-20% (Part 2, 100 mg QD, EoT): (33.3) %
- Proportion of Subjects with Nighttime Dip in 24-hour Systolic Ambulatory Blood Pressure <10% (Part 2, 100 mg QD, EoT): (66.7) %
- Proportion of Subjects with Nighttime Dip in 24-hour Systolic Ambulatory Blood Pressure 10-20% (Part 2, 100 mg QD, Week 4): (24.0) %
- Proportion of Subjects with Nighttime Dip in 24-hour Systolic Ambulatory Blood Pressure <10% (Part 2, 100 mg QD, Week 4): (72.0) %
- Proportion of Subjects with Nighttime Dip in 24-hour Systolic Ambulatory Blood Pressure >20% (Part 2, 100 mg QD, Week 4): (4.0) %
